ChEMBL document CHEMBL4649995, “Discovery of a PCAF Bromodomain Chemical Probe” (Angew Chem Int Ed Engl, 2017)

Experiments:
Conditions in all cases: Compound concentration 10.0 uM, Protein concentration 2.0 uM
[1] = molecular target: Bromodomain testis-specific protein (Homo sapiens) (UniProt Q58F21)
[2] = molecular target: Bromodomain adjacent to zinc finger domain protein 1A (Homo sapiens) (UniProt Q9NRL2)
[3] = molecular target: Transcription initiation factor TFIID subunit 1-like (Homo sapiens) (UniProt Q8IZX4)
[4] = molecular target: Protein polybromo-1 (Homo sapiens) (UniProt Q86U86)
[5] = molecular target: Bromodomain-containing protein 2 (Homo sapiens) (UniProt P25440)
[6] = molecular target: SWI/SNF-related matrix-associated actin-dependent regulator of chromatin subfamily A member 4 (Homo sapiens) (UniProt P51532)
[7] = molecular target: Bromodomain-containing protein 3 (Homo sapiens) (UniProt Q15059)
[8] = molecular target: Bromodomain and WD repeat-containing protein 3 (Homo sapiens) (UniProt Q6RI45)
[9] = molecular target: Protein polybromo-1 (Homo sapiens) (UniProt Q86U86); remark: listed apart in the source
[10] = molecular target: Nuclear body protein SP140 (Homo sapiens) (UniProt Q13342)
[11] = molecular target: Protein polybromo-1 (Homo sapiens) (UniProt Q86U86); remark: listed apart in the source
[12] = molecular target: Transcription intermediary factor 1-beta (Homo sapiens) (UniProt Q13263)
[13] = molecular target: Bromodomain-containing protein 1 (Homo sapiens) (UniProt O95696)
[14] = molecular target: CREB-binding protein (Homo sapiens) (UniProt Q92793)
[15] = molecular target: Nucleosome-remodeling factor subunit BPTF (Homo sapiens) (UniProt Q12830)
[16] = molecular target: Protein polybromo-1 (Homo sapiens) (UniProt Q86U86); remark: listed apart in the source
[17] = molecular target: ATPase family AAA domain-containing protein 2B (Homo sapiens) (UniProt Q9ULI0)
[18] = molecular target: Bromodomain-containing protein 4 (Homo sapiens) (UniProt O60885)
[19] = molecular target: Histone-lysine N-methyltransferase 2A (Homo sapiens) (UniProt Q03164)
[20] = molecular target: Histone-lysine N-methyltransferase ASH1L (Homo sapiens) (UniProt Q9NR48)
[21] = molecular target: SWI/SNF-related matrix-associated actin-dependent regulator of chromatin subfamily A member 2 (Homo sapiens) (UniProt P51531)
[22] = molecular target: Bromodomain and WD repeat-containing protein 1 (Homo sapiens) (UniProt Q9NSI6)
[23] = molecular target: Bromodomain-containing protein 3 (Homo sapiens) (UniProt Q15059); remark: listed apart in the source
[24] = molecular target: Peregrin (Homo sapiens) (UniProt P55201)
[25] = molecular target: Transcription initiation factor TFIID subunit 1-like (Homo sapiens) (UniProt Q8IZX4); remark: listed apart in the source
[26] = molecular target: Nuclear body protein SP140-like protein (Homo sapiens) (UniProt Q9H930)
[27] = molecular target: Bromodomain adjacent to zinc finger domain protein 2A (Homo sapiens) (UniProt Q9UIF9)
[28] = molecular target: Bromodomain-containing protein 4 (Homo sapiens) (UniProt O60885); remark: listed apart in the source
[29] = molecular target: Bromodomain-containing protein 2 (Homo sapiens) (UniProt P25440); remark: listed apart in the source
[30] = molecular target: Transcription intermediary factor 1-alpha (Homo sapiens) (UniProt O15164)
[31] = molecular target: Transcription initiation factor TFIID subunit 1 (Homo sapiens) (UniProt P21675)
[32] = molecular target: Bromodomain-containing protein 9 (Homo sapiens) (UniProt Q9H8M2)
[33] = molecular target: Histone acetyltransferase KAT2A (Homo sapiens) (UniProt Q92830)
[34] = molecular target: Histone acetyltransferase p300 (Homo sapiens) (UniProt Q09472)
[35] = molecular target: ATPase family AAA domain-containing protein 2 (Homo sapiens) (UniProt Q6PL18)
[36] = molecular target: Transcription intermediary factor 1-alpha (Homo sapiens) (UniProt O15164); remark: listed apart in the source
[37] = molecular target: Protein polybromo-1 (Homo sapiens) (UniProt Q86U86); remark: listed apart in the source
[38] = molecular target: Tyrosine-protein kinase BAZ1B (Homo sapiens) (UniProt Q9UIG0)
[39] = molecular target: Bromodomain-containing protein 7 (Homo sapiens) (UniProt Q9NPI1)
[40] = molecular target: Bromodomain adjacent to zinc finger domain protein 2B (Homo sapiens) (UniProt Q9UIF8)
[41] = molecular target: Bromodomain testis-specific protein (Homo sapiens) (UniProt Q58F21); remark: listed apart in the source
[42] = molecular target: Transcription initiation factor TFIID subunit 1 (Homo sapiens) (UniProt P21675); remark: listed apart in the source
[43] = molecular target: Bromodomain and PHD finger-containing protein 3 (Homo sapiens) (UniProt Q9ULD4)
[44] = molecular target: Chromatin remodeling regulator CECR2 (Homo sapiens) (UniProt Q9BXF3)
[45] = molecular target: Protein polybromo-1 (Homo sapiens) (UniProt Q86U86); remark: listed apart in the source
[46] = molecular target: Peregrin (Homo sapiens) (UniProt P55201); remark: listed apart in the source
[47] = molecular target: PH-interacting protein (Homo sapiens) (UniProt Q8WWQ0)

Sequence of Protein polybromo-1 (Homo sapiens) (Q86U86 whole entry, the tested form may be a part): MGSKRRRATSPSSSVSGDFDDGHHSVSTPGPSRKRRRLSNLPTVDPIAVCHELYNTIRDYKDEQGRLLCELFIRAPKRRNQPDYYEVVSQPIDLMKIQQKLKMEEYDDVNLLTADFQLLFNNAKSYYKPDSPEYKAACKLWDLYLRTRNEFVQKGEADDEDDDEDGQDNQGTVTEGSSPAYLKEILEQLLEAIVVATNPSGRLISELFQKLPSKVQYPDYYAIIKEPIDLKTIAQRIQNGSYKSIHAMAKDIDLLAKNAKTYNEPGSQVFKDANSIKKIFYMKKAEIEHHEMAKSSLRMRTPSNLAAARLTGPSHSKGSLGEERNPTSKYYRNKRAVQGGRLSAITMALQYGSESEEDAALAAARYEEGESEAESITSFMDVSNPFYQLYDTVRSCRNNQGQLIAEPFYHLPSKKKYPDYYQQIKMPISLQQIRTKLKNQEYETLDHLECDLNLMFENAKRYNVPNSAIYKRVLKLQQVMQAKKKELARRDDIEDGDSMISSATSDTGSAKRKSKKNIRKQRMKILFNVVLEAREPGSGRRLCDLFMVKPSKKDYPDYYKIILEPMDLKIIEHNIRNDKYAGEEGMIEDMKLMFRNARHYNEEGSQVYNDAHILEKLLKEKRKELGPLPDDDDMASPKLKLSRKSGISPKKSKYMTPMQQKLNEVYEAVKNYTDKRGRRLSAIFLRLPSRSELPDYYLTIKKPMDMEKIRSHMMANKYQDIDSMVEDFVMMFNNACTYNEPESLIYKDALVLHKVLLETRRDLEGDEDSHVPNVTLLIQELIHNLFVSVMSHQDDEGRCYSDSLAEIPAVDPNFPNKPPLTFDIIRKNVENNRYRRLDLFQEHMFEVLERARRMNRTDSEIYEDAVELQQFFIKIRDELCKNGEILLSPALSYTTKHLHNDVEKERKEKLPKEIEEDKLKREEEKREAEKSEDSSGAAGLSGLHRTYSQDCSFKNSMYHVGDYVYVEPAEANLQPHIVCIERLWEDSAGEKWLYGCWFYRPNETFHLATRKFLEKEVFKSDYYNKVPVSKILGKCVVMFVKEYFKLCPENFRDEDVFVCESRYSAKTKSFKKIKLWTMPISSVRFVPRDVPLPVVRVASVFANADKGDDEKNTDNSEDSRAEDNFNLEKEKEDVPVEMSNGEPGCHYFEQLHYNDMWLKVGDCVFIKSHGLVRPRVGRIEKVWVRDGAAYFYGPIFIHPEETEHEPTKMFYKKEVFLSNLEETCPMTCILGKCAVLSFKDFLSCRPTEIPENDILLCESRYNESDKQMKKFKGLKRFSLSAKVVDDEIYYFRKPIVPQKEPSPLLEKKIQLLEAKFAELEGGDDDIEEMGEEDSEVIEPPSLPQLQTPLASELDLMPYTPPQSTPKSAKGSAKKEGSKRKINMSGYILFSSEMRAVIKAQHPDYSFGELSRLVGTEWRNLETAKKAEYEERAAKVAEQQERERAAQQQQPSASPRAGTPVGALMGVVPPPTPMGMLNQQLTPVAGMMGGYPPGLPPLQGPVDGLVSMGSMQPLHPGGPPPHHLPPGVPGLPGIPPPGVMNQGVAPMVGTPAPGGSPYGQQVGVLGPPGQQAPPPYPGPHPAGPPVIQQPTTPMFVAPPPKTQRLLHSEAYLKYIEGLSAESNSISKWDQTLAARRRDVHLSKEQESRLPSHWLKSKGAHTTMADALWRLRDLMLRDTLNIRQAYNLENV
Sequence of Transcription intermediary factor 1-alpha (Homo sapiens) (O15164 whole entry): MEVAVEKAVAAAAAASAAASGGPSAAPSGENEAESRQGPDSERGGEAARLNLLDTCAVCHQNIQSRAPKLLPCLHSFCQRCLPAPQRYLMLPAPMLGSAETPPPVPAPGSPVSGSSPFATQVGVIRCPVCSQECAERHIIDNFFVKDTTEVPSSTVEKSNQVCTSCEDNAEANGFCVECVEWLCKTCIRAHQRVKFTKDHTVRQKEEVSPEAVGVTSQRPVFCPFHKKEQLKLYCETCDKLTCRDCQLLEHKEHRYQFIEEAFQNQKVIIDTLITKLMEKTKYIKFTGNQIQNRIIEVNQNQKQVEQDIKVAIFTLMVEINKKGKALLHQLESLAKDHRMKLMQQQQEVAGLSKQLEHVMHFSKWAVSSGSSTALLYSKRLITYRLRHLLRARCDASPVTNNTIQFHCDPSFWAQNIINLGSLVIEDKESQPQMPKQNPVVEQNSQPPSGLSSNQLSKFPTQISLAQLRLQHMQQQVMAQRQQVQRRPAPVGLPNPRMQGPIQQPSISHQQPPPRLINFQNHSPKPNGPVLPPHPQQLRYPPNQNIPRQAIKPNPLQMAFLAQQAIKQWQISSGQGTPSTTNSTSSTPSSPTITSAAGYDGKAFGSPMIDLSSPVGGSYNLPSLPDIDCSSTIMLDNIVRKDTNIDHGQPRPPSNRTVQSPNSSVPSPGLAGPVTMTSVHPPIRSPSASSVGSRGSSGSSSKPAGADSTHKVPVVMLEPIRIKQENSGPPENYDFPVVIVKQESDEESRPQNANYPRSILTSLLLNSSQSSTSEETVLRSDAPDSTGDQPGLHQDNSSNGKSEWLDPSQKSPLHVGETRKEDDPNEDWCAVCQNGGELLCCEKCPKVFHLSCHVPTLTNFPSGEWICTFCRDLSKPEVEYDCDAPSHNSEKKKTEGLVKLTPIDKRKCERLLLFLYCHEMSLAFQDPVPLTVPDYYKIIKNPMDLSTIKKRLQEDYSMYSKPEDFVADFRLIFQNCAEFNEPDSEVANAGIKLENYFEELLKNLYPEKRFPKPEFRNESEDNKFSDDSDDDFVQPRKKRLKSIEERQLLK
Sequence of Peregrin (Homo sapiens) (P55201 whole entry): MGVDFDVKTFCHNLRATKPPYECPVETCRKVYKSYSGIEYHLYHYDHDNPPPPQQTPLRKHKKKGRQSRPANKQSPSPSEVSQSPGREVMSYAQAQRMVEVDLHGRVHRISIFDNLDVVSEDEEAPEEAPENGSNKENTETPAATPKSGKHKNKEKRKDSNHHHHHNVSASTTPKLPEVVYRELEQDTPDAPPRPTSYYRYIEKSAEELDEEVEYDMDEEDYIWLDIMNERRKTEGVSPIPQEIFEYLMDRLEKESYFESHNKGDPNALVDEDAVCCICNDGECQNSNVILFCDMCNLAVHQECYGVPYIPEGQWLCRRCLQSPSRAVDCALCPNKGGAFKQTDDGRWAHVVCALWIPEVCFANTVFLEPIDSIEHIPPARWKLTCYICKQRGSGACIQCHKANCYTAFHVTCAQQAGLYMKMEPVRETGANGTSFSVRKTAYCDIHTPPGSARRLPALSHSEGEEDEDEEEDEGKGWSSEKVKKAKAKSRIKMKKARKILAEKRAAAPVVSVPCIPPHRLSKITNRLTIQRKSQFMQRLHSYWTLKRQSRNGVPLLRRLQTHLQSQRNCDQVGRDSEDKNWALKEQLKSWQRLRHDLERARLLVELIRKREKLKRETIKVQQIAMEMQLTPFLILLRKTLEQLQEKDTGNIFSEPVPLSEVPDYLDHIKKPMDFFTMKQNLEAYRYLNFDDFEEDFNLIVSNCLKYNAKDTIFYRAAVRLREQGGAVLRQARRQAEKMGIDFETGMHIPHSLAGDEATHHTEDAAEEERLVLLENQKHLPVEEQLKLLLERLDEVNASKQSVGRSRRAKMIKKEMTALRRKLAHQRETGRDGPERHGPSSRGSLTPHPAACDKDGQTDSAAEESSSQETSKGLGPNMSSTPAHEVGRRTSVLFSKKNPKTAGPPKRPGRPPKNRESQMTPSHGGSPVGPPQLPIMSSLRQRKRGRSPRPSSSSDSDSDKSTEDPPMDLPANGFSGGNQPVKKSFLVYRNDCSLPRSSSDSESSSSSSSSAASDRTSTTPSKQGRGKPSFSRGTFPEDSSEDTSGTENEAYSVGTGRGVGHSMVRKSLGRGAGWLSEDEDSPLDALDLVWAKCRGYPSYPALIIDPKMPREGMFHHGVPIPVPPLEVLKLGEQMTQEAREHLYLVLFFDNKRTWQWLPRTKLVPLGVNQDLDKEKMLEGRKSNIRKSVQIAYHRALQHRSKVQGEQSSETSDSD
Sequence of Bromodomain-containing protein 3 (Homo sapiens) (Q15059 2-726 limits assumed): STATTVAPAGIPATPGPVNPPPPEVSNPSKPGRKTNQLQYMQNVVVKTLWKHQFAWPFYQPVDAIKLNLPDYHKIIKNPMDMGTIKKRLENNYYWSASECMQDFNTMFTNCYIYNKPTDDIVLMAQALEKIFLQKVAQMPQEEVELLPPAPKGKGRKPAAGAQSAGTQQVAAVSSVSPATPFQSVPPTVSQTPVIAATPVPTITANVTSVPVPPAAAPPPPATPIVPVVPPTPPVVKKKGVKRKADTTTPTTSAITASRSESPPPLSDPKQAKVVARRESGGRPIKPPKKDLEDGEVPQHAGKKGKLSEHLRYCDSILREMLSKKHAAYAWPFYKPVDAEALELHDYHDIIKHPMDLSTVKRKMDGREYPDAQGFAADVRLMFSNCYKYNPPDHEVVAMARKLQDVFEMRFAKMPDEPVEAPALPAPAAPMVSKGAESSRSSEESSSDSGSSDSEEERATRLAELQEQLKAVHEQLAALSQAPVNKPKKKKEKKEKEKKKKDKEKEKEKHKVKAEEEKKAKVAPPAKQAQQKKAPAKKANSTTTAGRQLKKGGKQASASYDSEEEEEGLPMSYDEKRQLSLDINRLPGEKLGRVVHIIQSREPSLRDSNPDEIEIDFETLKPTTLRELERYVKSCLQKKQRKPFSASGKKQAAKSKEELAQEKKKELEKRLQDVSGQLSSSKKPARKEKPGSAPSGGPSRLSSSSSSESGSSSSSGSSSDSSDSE

ΔTm [1]: 0.72 °C
ΔTm [2]: 1.31 °C
ΔTm [3]: 0.67 °C
ΔTm [4]: 0.43 °C
ΔTm [5]: 0.23 °C
ΔTm [6]: 0.42 °C
ΔTm [7]: 0.13 °C
ΔTm [8]: 2.16 °C
ΔTm [9]: 0.65 °C
ΔTm [10]: 0.09 °C
ΔTm [11]: 0.75 °C
ΔTm [12]: 0.5 °C
ΔTm [13]: -0.26 °C
ΔTm [14]: 0.95 °C
ΔTm [15]: 0.08 °C
ΔTm [16]: 0.13 °C
ΔTm [17]: 0.61 °C
ΔTm [18]: 0.1 °C
ΔTm [19]: 1.14 °C
ΔTm [20]: 0.62 °C
ΔTm [21]: 0.51 °C
ΔTm [22]: 2 °C
ΔTm [23]: 0.26 °C
ΔTm [24]: 1.03 °C
ΔTm [25]: 0.33 °C
ΔTm [26]: 0.94 °C
ΔTm [27]: 0.1 °C
ΔTm [28]: 0.39 °C
ΔTm [29]: -0.06 °C
ΔTm [30]: 0.69 °C
ΔTm [31]: 0.42 °C
ΔTm [32]: 0.56 °C
ΔTm [33]: 3.75 °C
ΔTm [34]: 0.86 °C
ΔTm [35]: 1.18 °C
ΔTm [36]: 0.77 °C
ΔTm [37]: 0.1 °C
ΔTm [38]: 0.72 °C
ΔTm [39]: -0.07 °C
ΔTm [40]: 0.67 °C
ΔTm [41]: -2.19 °C
ΔTm [42]: 0.5 °C
ΔTm [43]: 0.78 °C
ΔTm [44]: 0.63 °C
ΔTm [45]: 0.26 °C
ΔTm [46]: 1.19 °C
ΔTm [47]: -0.82 °C
SMILES: Cc1nnc2c3ccccc3c(N[C@@H](C)[C@H](c3ccccc3)N(C)C)nn12
